Tests used:
Aβ42 = Aβ42 ELISA of conditioned media, HEK-APP695WT cells; assay type: cell-based, human; conditions: 72 h
Procedure: iPSC‐Ns or HEK‐APP695WT were treated with drugs, and secreted Aβ42 peptides inculture soup were quantified using the Human Amyloid β1‐42 human ELISA kit (Thermo Fisher) according to the manufacturer's protocol. Mouse brain extraction was performed as previously described, with minor modifications. Mouse brain tissues were homogenized at a 1:10 weight‐to‐volume ratio in Tris‐buffered saline (TBS; 50 mM Tris, pH 7.4, 150 mM NaCl) supplemented with 2 mM EDTA and protease inhibitors. TBS‐homogenized brains were centrifuged for 1 h at 16 000 g. To extract total Aβ, including insoluble fractions, formic acid was added to a final concentration of 70%, and the samples were thoroughly mixed by pipetting. […] Prior to quantification, formic acid‐containing samples were neutralized with 1 M Tris base (pH 11). Aβ40 and Aβ42 levels were measured using human‐specific ELISA kits (Invitrogen) and normalized to total protein concentrations determined by the BCA assay (Thermo Scientific). For Aβ quantification in 3D organoids, 3D organoids’ processing and ELISA analysis were performed with minor modifications from previously described protocols. […] Aβ42 levels in both fractions were measured using human‐specific ELISA kits (Thermo Fisher) according to the manufacturer's instructions. […] Aβ levels were normalized to total protein concentration determined by BCA assay.

HEK‐APP695WT cells = test: CellTiter-Glo cell viability, HEK cells; assay type: cell-based, human; conditions: 10 µM, 72 h
APP mRNA = test: qRT-PCR of APP mRNA; assay type: cell-based, human; conditions: 72 h
Procedure: Total RNA was isolated using the RNeasy kit (Qiagen), followed by synthesis for cDNA with a reverse transcription reaction (Quantitect Reverse Transcription kit). The sequences for APP and GAPDH are in Table S1. Quantitative PCR was performed on QuantStudio 6 Flex (Applied Biosystems). The expression levels of APP were normalized to the GAPDH mRNA levels and represented relative to the expression in control cells. The results were analyzed with the delta‐delta‐Ct methods. Ct values were calculated using QuantStudio Design & Analysis Software, and relative expression levels were analyzed with GraphPad Prism.

[1] = system: CAPRIN1, G3BP1, BACE1, ADAM10, PSEN1, nicastrin, GGA1, Sorla, neprilysin; test: Western blot of CAPRIN1, G3BP1 and other AD-related proteins; assay type: cell-based, human; conditions: 10 µM
APP = APP (Homo sapiens, UniProt P05067); test: Western blot of APP in HEK-APP695WT cells; assay type: cell-based; design: expressed in transfected cells; conditions: 72 h
Chain of APP (P05067 18-695 isoform P05067-4 limits assumed): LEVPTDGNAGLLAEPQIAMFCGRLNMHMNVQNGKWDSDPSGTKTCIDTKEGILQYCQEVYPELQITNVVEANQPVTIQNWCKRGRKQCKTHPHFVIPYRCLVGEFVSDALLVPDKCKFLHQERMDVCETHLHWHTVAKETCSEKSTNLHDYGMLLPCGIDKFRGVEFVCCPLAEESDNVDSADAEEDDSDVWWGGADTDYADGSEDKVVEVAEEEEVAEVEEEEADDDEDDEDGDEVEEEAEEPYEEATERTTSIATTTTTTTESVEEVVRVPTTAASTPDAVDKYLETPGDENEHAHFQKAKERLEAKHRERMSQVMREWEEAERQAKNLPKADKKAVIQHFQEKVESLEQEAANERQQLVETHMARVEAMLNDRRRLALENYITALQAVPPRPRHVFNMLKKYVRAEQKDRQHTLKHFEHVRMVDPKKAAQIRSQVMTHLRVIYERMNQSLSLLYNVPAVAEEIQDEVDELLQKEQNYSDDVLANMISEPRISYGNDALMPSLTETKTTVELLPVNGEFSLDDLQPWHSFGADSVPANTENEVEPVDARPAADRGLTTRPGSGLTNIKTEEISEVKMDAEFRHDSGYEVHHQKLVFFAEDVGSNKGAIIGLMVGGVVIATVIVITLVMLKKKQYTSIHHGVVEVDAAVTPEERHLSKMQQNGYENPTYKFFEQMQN

5xFAD transgenic mice = test: Amyloid pathology in 5xFAD mice (IHC, Thioflavin S, ELISA); assay type: in vivo, mouse
Source text: Female 5xFAD transgenic mice (9–10 weeks old) were used to evaluate the efficacy of 0152 in reducing amyloid pathology. Mice were housed under Indiana University standard laboratory conditions. For intraperitoneal (IP) administration, mice received either vehicle or 0152 (indicated concentrations) in a formulation consisting of 20% DMSO, 20% Cremophor EL, and 60% PBS. For oral (PO) administration, mice received either vehicle or 0152 (indicated concentrations) in a formulation consisting of 10% NMP (N‐methyl‐2‐pyrrolidone), 10% PG (Propylene Glycol), 5% Solutol HS‐15, and 75% Captisol (10% w/v in RO water). At the end of the treatment period, mice were sacrificed, and their brains were collected for histological analysis. Brain tissues were fixed in 10% Formalin, embedded in paraffin, and sectioned. Thioflavin S staining was performed to visualize β‐sheet‐rich amyloid plaques, and immunohistochemistry was conducted using the 6E10 monoclonal antibody to detect Aβ plagues. Body weights were recorded daily throughout the study.
iPSC‐Ns or HEK‐APP695WT were treated with drugs, and secreted Aβ42 peptides inculture soup were quantified using the Human Amyloid β1‐42 human ELISA kit (Thermo Fisher) according to the manufacturer's protocol. Mouse brain extraction was performed as previously described, with minor modifications. Mouse brain tissues were homogenized at a 1:10 weight‐to‐volume ratio in Tris‐buffered saline (TBS; 50 mM Tris, pH 7.4, 150 mM NaCl) supplemented with 2 mM EDTA and protease inhibitors. TBS‐homogenized brains were centrifuged for 1 h at 16 000 g. To extract total Aβ, including insoluble fractions, formic acid was added to a final concentration of 70%, and the samples were thoroughly mixed by pipetting. Homogenates were centrifuged at 100 000 g for 1 h at 4°C, and the resulting supernatants were collected. Prior to quantification, formic acid‐containing samples were neutralized with 1 M Tris base (pH 11). Aβ40 and Aβ42 levels were measured using human‐specific ELISA kits (Invitrogen) and normalized to total protein concentrations determined by the BCA assay (Thermo Scientific). For Aβ quantification in 3D organoids, 3D organoids’ processing and ELISA analysis were performed with minor modifications from previously described protocols. Briefly, cerebral organoids were lysed in RIPA buffer supplemented with protease and phosphatase inhibitor cocktails (Sigma), followed by sonication and incubation on ice for 60 min. Lysates were centrifuged at 13 000 rpm for 1 h at 4°C, and the supernatants were collected as the RIPA‐soluble fraction. The remaining pellets were resuspended in 70% formic acid, sonicated, and subsequently neutralized with Tris buffer to obtain the formic acid‐solubilized fraction. Aβ42 levels in both fractions were measured using human‐specific ELISA kits (Thermo Fisher) according to the manufacturer's instructions. Formic acid extracts were appropriately neutralized prior to ELISA. Aβ levels were normalized to total protein concentration determined by BCA assay.
Autopsy samples of brain tissues were provided, and immunohistochemistry was performed in the Department of Pathology and Laboratory Medicine, Indiana University School of Medicine, following the institutional protocols. Paraffin‐embedded 3D organoids and human AD patient brain samples were subjected to Hematoxylin and Eosin (H&E), synapses, GFAP, CAPRIN1 (polyclonal Rabbit anti‐CAPRIN1, 15112‐1‐AP, Proteintech), APP (monoclonal mouse anti‐APP/Aβ (6E10), 803001, Biolegend; MAB348, Millipore Sigma) in a Dako automated instrument using the Dako Flex detection system. The primary antibodies and secondary antibodies were used in colocalization experiments with human AD brain biopsy samples, then imaged using a confocal microscope system. Thioflavin‐S was stained with deparaffinization and rehydration of mouse brain sections using a series of xylene and ethanol washes. […]

CAPRIN1 and APP = biological target: T1, CAPRIN1 and APP (Homo sapiens, UniProt P05067+Q14444); test: Streptavidin pull-down with biotinylated 0152 in AG27606-N lysates; assay type: binding
T1 construct: endogenous in cells; host or cells: AG27606-Ns, sAD2.3-Ns (iPSC-derived neurons) and their lysates

[2] = 80 mg/kg IP twice per day, 30 days

Compound | Aβ42 in conditioned media (Aβ42; 10 µM) | Extracellular Aβ42 (ELISA) (Aβ42; increasing concentrations) | Cell viability (CellTiter-Glo) (HEK‐APP695WT cells) | APP mRNA expression (qRT-PCR) (APP mRNA; AD iPSC-Ns) | APP mRNA (qRT-PCR) (APP mRNA; HEK-APP695WT cells) | CAPRIN1 and G3BP1 protein levels ([1]; HEK-APP695WT cells, 12–72 h) | Levels of other AD-related proteins (BACE1, ADAM10, PSEN1, nicastrin, GGA1, Sorla, neprilysin) ([1]; SAD2.3-Ns, 72 h) | Intracellular APP (western blot) (APP; HEK-APP695WT cells, increasing concentrations) | Effects on APP and Aβ42 in CAPRIN1 KO cells (APP; sgCAPRIN1 HEK-APP695WT cells, 10 µM) | APP/Aβ-positive areas and plaque sizes in subiculum and hippocampus, plaque sizes in cortex (IHC) (5xFAD transgenic mice; [2]) | Fibrillar Aβ plaques in subiculum (Thioflavin S) (5xFAD transgenic mice; [2]) | APP/Aβ-positive areas and plaque sizes in subiculum (IHC, Thioflavin S) (5xFAD transgenic mice; 80 mg/kg oral gavage twice daily, 30 days) | APP/Aβ-positive area and amyloid plaque size, hippocampus and subiculum (IHC) (5xFAD transgenic mice; 100 mg/kg IP daily, 24 days) | Aβ40 and Aβ42 levels in hemispheric brain lysates (ELISA) (5xFAD transgenic mice; 100 mg/kg IP daily, 24 days) | Fibrillar Aβ plaques in subiculum (Thioflavin S) (5xFAD transgenic mice; 100 mg/kg IP daily, 24 days) | Plaque burden in cortex (IHC) (5xFAD transgenic mice; 100 mg/kg IP daily, 24 days) | Competition of the 0152-biotin pull-down by excess free compound (CAPRIN1 and APP)
N#Cc1cccc(NC(=O)Nc2nc3ccc(C(=O)N4CCOCC4)cc3s2)c1 [compound 0043] | most potent in reducing Aβ42 | reduced intracellular APP and extracellular Aβ42 levels in a dose‐dependent manner | without inducing cytotoxicity | nor did it alter APP mRNA expression | no significant changes | no effect | did not affect levels | reduced intracellular APP | abolished | – | – | – | – | – | – | – | –
COc1cccc(NC(=O)Nc2nc3ccc(C(=O)N4CCOCC4)cc3s2)c1 [compound 0152] | – | – | – | – | – | – | – | – | – | significantly reduced | drastically reduced fibrillar Aβ plaques | significant reduction | significant reductions | marked decreases | reduced fibrillar Aβ plaques | minimal changes | competitively inhibited
